Starred links: 1 amine or outer side, 2 acyl side, 3 side chain; linkers in the order of their positions; H or OH if unused. Non-standard residues stand in square brackets, D forms with d. Residues, ends and D or L forms follow the SMILES beside them. Groups on a side chain read outwards from the residue. *: point of attachment. Isobutyryl(2-imidazol-4-yl) = CC(C)(C(=O)*)c1c[nH]cn1; γGlu = O=C(O)[C@H](CCC(=O)[*:2])N[*:1]; Palmitoyl = CCCCCCCCCCCCCCCC(=O)*; Aib = CC(C)(N)C(=O)O
Experiments:
glucagon receptor = molecular target: T1, glucagon receptor (Homo sapiens, UniProt P47871); experiment: cAMP induction, firefly luciferase reporter assay, glucagon receptor; assay type: cell-based; settings: for Activity at Glucagon Receptor % Relative Activity: compared to native glucagon
T1 construct: expressed in transfected cells; host or cells: HEK293
T1 sequence (P47871 26-477): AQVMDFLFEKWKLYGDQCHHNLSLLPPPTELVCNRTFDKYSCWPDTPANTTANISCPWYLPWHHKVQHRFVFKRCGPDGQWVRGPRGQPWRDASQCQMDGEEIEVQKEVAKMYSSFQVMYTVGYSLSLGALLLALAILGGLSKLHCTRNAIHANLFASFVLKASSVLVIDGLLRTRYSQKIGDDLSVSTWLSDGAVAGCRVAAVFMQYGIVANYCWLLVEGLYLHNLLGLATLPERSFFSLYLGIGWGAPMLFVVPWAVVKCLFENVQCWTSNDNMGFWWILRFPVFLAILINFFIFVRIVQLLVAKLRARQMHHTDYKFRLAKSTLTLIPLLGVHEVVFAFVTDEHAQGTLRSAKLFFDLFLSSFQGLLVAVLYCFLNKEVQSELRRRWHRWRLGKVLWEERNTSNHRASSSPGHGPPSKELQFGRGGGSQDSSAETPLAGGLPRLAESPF
Method: (§1) The ability of each peptide to induce cAMP was measured in a firefly luciferase-based reporter assay.
(§2) At the end of the incubation, 100 μL of LucLite luminescence substrate reagent (Perkin Elmer, Wellesley, Mass.) were added to each well. The plate was shaken briefly, incubated 10 min in the dark and light output was measured on MicroBeta-1450 liquid scintillation counter (Perkin-Elmer, Wellesley, Mass.).

GLP-1 receptor = molecular target: T2, GLP-1 receptor (Homo sapiens, UniProt P43220); experiment: cAMP induction, firefly luciferase reporter assay, GLP-1 receptor; assay type: cell-based; settings: for Activity at GLP-1 Receptor % Relative Activity: compared to native GLP-1
T2 construct: expressed in transfected cells; host or cells: HEK293
T2 sequence (P43220 24-463): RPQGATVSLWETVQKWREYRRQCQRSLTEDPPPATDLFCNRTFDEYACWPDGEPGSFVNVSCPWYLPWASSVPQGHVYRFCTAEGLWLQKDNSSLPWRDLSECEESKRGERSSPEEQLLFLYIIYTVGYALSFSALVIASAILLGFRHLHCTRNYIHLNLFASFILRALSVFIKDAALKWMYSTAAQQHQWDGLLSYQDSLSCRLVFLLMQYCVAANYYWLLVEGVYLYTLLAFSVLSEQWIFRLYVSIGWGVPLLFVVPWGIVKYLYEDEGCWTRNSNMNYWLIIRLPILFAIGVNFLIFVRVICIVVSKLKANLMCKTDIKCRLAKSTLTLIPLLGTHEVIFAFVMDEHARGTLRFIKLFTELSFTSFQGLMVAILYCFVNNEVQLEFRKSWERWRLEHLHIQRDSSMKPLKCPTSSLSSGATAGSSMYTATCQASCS
Method: as §1, §2

[1] = Activity at GLP-1 Receptor EC50 [pM], Table 3A

SMILES	Activity at Glucagon Receptor % Relative Activity (glucagon receptor; Table 3A)	EC50 (GLP-1 receptor; [1])	Activity at GLP-1 Receptor % Relative Activity (GLP-1 receptor; Table 3A)	Activity at Glucagon Receptor % Relative Activity (glucagon receptor; Table 5)	Activity at GLP-1 Receptor % Relative Activity (GLP-1 receptor; Table 5)	other results
CC(C)C[C@H](NC(=O)[C@H](CC(C)C)NC(=O)[C@H](Cc1c[nH]c2ccccc12)NC(=O)[C@H](CS)NC(=O)[C@@H](NC(=O)[C@H](Cc1ccccc1)NC(=O)[C@H](CCC(=O)O)NC(=O)[C@H](CCCCN)NC(=O)[C@H](C)NC(=O)[C@H](CCCNC(=N)N)NC(=O)[C@H](CCCCN)NC(=O)C(C)(C)NC(=O)[C@H](CC(=O)O)NC(=O)[C@H](CC(C)C)NC(=O)[C@H](Cc1ccc(O)cc1)NC(=O)[C@H](CCCCN)NC(=O)[C@H](CO)NC(=O)[C@H](Cc1ccc(O)cc1)NC(=O)[C@H](CC(=O)O)NC(=O)[C@H](CO)NC(=O)[C@@H](NC(=O)[C@H](Cc1ccccc1)NC(=O)[C@@H](NC(=O)CNC(=O)[C@H](CCC(N)=O)NC(=O)[C@@H](CO)NC(=O)[C@@H](N)Cc1c[nH]cn1)[C@@H](C)O)[C@@H](C)O)C(C)C)C(=O)N[C@@H](CC(=O)O)C(=O)NCC(=O)NCC(=O)N1CCC[C@H]1C(=O)N[C@@H](CO)C(=O)N[C@@H](CO)C(=O)NCC(=O)N[C@@H](C)C(=O)N1CCC[C@H]1C(=O)N1CCC[C@H]1C(=O)N1CCC[C@H]1C(=O)N[C@@H](CO)C(N)=O [compound 60] (H-H[dS]QGTFTSDYSKYLD[Aib]KRAKEFVCWLLDGGPSSGAPPPS-NH2; N-terminus assumed)	–	–	–	–	–	EC50 (glucagon receptor; Activity at Glucagon Receptor EC50 (nM), Table 2B): 0.006 nM; Activity at Glucagon Receptor % Relative Activity (glucagon receptor; Table 2B): 257%; Activity at GLP-1 Receptor % Relative Activity (GLP-1 receptor; Table 2B): 19%
CCCCCCCCCCCCCCCC(=O)N[C@@H](CCC(=O)N[C@@H](CCC(=O)NCCCC[C@H](NC(=O)[C@H](CC(=O)O)NC(=O)[C@H](CO)NC(=O)[C@@H](NC(=O)[C@H](Cc1ccccc1)NC(=O)[C@@H](NC(=O)CNC(=O)[C@H](CCC(N)=O)NC(=O)C(C)(C)NC(=O)[C@@H](N)Cc1c[nH]cn1)[C@@H](C)O)[C@@H](C)O)C(=O)N[C@@H](CO)C(=O)N[C@@H](CCCCN)C(=O)N[C@@H](Cc1ccc(O)cc1)C(=O)N[C@@H](CC(C)C)C(=O)N[C@@H](CC(=O)O)C(=O)NC(C)(C)C(=O)N[C@@H](CCCNC(=N)N)C(=O)N[C@@H](C)C(=O)N[C@@H](C)C(=O)N[C@@H](CCC(N)=O)C(=O)N[C@@H](CC(=O)O)C(=O)N[C@@H](Cc1ccccc1)C(=O)N[C@H](C(=O)N[C@@H](CCC(N)=O)C(=O)N[C@@H](Cc1c[nH]c2ccccc12)C(=O)N[C@@H](CC(C)C)C(=O)N[C@@H](CCSC)C(=O)N[C@@H](CC(=O)O)C(=O)N[C@H](C(N)=O)[C@@H](C)O)C(C)C)C(=O)O)C(=O)O [compound 42] (H-H[Aib]QGTFTSDK([γGlu-γGlu-Palmitoyl])SKYLD[Aib]RAAQDFVQWLMDT-NH2; N-terminus assumed)	863%	5 pM	500%	–	–	–
CCCCCCCCCCCCCCCC(=O)N[C@@H](CCC(=O)NCCCC[C@H](NC(=O)[C@H](CC(=O)O)NC(=O)[C@H](CO)NC(=O)[C@@H](NC(=O)[C@H](Cc1ccccc1)NC(=O)[C@@H](NC(=O)CNC(=O)[C@H](CCC(N)=O)NC(=O)[C@@H](CO)NC(=O)[C@@H](N)Cc1c[nH]cn1)[C@@H](C)O)[C@@H](C)O)C(=O)N[C@@H](CO)C(=O)N[C@@H](CCCCN)C(=O)N[C@@H](Cc1ccc(O)cc1)C(=O)N[C@@H](CC(C)C)C(=O)N[C@@H](CC(=O)O)C(=O)N[C@@H](CCC(=O)O)C(=O)N[C@@H](CCC(N)=O)C(=O)N[C@@H](C)C(=O)N[C@@H](C)C(=O)N[C@@H](CCCCN)C(=O)N[C@@H](CCC(=O)O)C(=O)N[C@@H](Cc1ccccc1)C(=O)N[C@H](C(=O)N[C@@H](CS)C(=O)N[C@@H](Cc1c[nH]c2ccccc12)C(=O)N[C@@H](CC(C)C)C(=O)N[C@@H](CC(C)C)C(=O)N[C@@H](CC(=O)O)C(=O)N[C@H](C(=O)O)[C@@H](C)O)[C@@H](C)CC)C(=O)O [compound 76]	–	–	–	–	–	Activity at Glucagon Receptor % Relative Activity (glucagon receptor; Table 3C): 1500%; EC50 (GLP-1 receptor; Activity at GLP-1 Receptor EC50 [nM], Table 3C): 3 pM; Activity at GLP-1 Receptor % Relative Activity (GLP-1 receptor; Table 3C): 1200%
CCCCCCCCCCCCCCCC(=O)N[C@@H](CCC(=O)NCCCC[C@H](NC(=O)[C@H](CC(=O)O)NC(=O)[C@H](CO)NC(=O)[C@@H](NC(=O)[C@H](Cc1ccccc1)NC(=O)[C@@H](NC(=O)CNC(=O)[C@H](CCC(N)=O)NC(=O)C(C)(C)NC(=O)[C@@H](N)Cc1c[nH]cn1)[C@@H](C)O)[C@@H](C)O)C(=O)N[C@@H](CO)C(=O)N[C@@H](CCCCN)C(=O)N[C@@H](Cc1ccc(O)cc1)C(=O)N[C@@H](CC(C)C)C(=O)N[C@@H](CC(=O)O)C(=O)N[C@@H](CCC(=O)O)C(=O)N[C@@H](CCC(N)=O)C(=O)N[C@@H](C)C(=O)N[C@@H](C)C(=O)N[C@@H](CCCCN)C(=O)N[C@@H](CCC(=O)O)C(=O)N[C@@H](Cc1ccccc1)C(=O)N[C@H](C(=O)N[C@@H](C)C(=O)N[C@@H](Cc1c[nH]c2ccccc12)C(=O)N[C@@H](CC(C)C)C(=O)N[C@@H](CC(C)C)C(=O)N[C@@H](CC(=O)O)C(=O)N[C@H](C(N)=O)[C@@H](C)O)[C@@H](C)CC)C(=O)O [compound 52]	379%	2.9 pM	1276%	–	–	EC50 (glucagon receptor; Activity at Glucagon Receptor EC50 [pM], Table 3A): 0.0029 nM
CCCCCCCCCCCCCCCC(=O)N[C@@H](CCC(=O)NCCCC[C@H](NC(=O)[C@H](CC(=O)O)NC(=O)[C@H](CO)NC(=O)[C@@H](NC(=O)[C@H](Cc1ccccc1)NC(=O)[C@@H](NC(=O)CNC(=O)[C@H](CCC(N)=O)NC(=O)[C@@H](CO)NC(=O)[C@@H](N)Cc1c[nH]cn1)[C@@H](C)O)[C@@H](C)O)C(=O)N[C@@H](CO)C(=O)N[C@@H](CCCCN)C(=O)N[C@@H](Cc1ccc(O)cc1)C(=O)N[C@@H](CC(C)C)C(=O)N[C@@H](CC(=O)O)C(=O)N[C@@H](CCC(=O)O)C(=O)N[C@@H](CCC(N)=O)C(=O)N[C@@H](C)C(=O)N[C@@H](C)C(=O)N[C@@H](CCCCN)C(=O)N[C@@H](CCC(=O)O)C(=O)N[C@@H](Cc1ccccc1)C(=O)N[C@H](C(=O)N[C@@H](CS)C(=O)N[C@@H](Cc1c[nH]c2ccccc12)C(=O)N[C@@H](CC(C)C)C(=O)N[C@@H](CC(C)C)C(=O)N[C@@H](CC(=O)O)C(=O)N[C@H](C(N)=O)[C@@H](C)O)[C@@H](C)CC)C(=O)O [compound 53]	–	–	–	411%	708%	–
CCCCCCCCCCCCCCCC(=O)N[C@@H](CCC(=O)NCCCC[C@H](NC(=O)[C@H](CC(=O)O)NC(=O)[C@H](CO)NC(=O)[C@@H](NC(=O)[C@H](Cc1ccccc1)NC(=O)[C@@H](NC(=O)CNC(=O)[C@H](CCC(N)=O)NC(=O)[C@H](CO)NC(=O)C(C)(C)c1c[nH]cn1)[C@@H](C)O)[C@@H](C)O)C(=O)N[C@@H](CO)C(=O)N[C@@H](CCCCN)C(=O)N[C@@H](Cc1ccc(O)cc1)C(=O)N[C@@H](CC(C)C)C(=O)N[C@@H](CC(=O)O)C(=O)N[C@@H](CCC(=O)O)C(=O)N[C@@H](CCC(N)=O)C(=O)N[C@@H](C)C(=O)N[C@@H](C)C(=O)N[C@@H](CCCCN)C(=O)N[C@@H](CCC(=O)O)C(=O)N[C@@H](Cc1ccccc1)C(=O)N[C@H](C(=O)N[C@@H](CS)C(=O)N[C@@H](Cc1c[nH]c2ccccc12)C(=O)N[C@@H](CC(C)C)C(=O)N[C@@H](CC(C)C)C(=O)N[C@@H](CC(=O)O)C(=O)N[C@H](C(N)=O)[C@@H](C)O)[C@@H](C)CC)C(=O)O [compound 54] ({Isobutyryl(2-imidazol-4-yl)}-SQGTFTSDK([γGlu-Palmitoyl])SKYLDEQAAKEFICWLLDT-NH2)	–	–	–	35%	42%	EC50 (glucagon receptor; Activity at Glucagon Receptor EC50 [nM], Table 5): 0.107 nM

— patent publication US8703701B2 (Indiana University Research and Technology Corporation, priority 2009, dated 2014)
